Results taken from US20230346827A1 (priority 2020, published 2023).

Tested on: rats subjected to sTBI
Assay: sTBI rats, LMW-DS 1, 5, 15 mg/kg s.c. 30 min post-TBI: HPLC of brain energy metabolites, antioxidants, oxidative/nitrosative stress biomarkers (Example 4)
Assay type: in vivo, rat
Settings: for ATP/ADP / NAD+/NADH: adimensional ratio
Procedure: Male Wistar rats (n=160) of 300-350 g body weight were used in this study. They were fed with standard laboratory diet and water ad libitum in a controlled environment.
As the accepted anesthetic mixture, animals received 35 mg/kg b.w. ketamine and 0.25 mg/kg body weight midazolam by intramuscular injection. Diffuse sTBI was induced according to the “weight drop” impact acceleration model set up by Marmarou et al. J. Neurosurg. 1994, 80: 291-300. This model causes diffuse axonal injury and it is able to reproduce the physical and mechanical characteristics of the diffuse TBI in humans.
Severe TBI was induced by dropping a 450 g weight from 2 meters height onto the rat head protected by a helmet (metal disk previously fixed on the skull using dental cement) in order to uniformly distribute the mechanical force to the brain. Rats were placed prone on a bed of specific polyurethane foam inserted in a special container; this foam dissipates the major part of the potential energy (deriving from the mechanical forces) and prevents any rebound of the animal after the impact that could produce spinal damages.
After 2 or 7 days from TBI induction, rats were anesthetized again and then immediately sacrificed. These time points are coincident with the worst biochemical derangement (2 days) or, in the case of a mildly injured brain, with a full metabolic recovery (7 days).
The drug treatment consisted in a subcutaneous injection of 0.5 ml of LMW-DS (ILB®, Tikomed, Viken, Sweden, WO 2016/076780) and administered at 3 different concentrations (1, 5 and 15 mg/kg body weight), according to the schematic protocol described below. Sham-operated animals underwent the same procedure of anesthesia but TBI and were used as the control group.
(§1) Rats subjected to sTBI and receiving a single administration of LMW-DS after 30 minutes post-TBI, with sacrifice at 2 days post-TBI. Animals were divided in the following subgroups: • 1. 12 animals subjected to sTBI and treated with 1 mg/kg b.w. LMW-DS • 2. 12 animals subjected to sTBI and treated with 5 mg/kg b.w. LMW-DS • 3. 12 animals subjected to sTBI and treated with 15 mg/kg b.w. LMW-DS
as §1, with “at 7” for “at 2”
Rats (n = 12) subjected to sTBI and receiving repeated administrations of the maximal dose of LMW-DS (15 mg/kg b.w.) after 30 minutes, 3 days and 5 days post-TBI, with sacrifice at 7 days post-TBI. Four additional rats were used for the histo-morphological studies. Total rats in this group: n=16
To minimize metabolite loss, an in vivo craniectomy was performed in all animals during anesthesia. The rat skull was carefully removed, the brain was exposed, sharply cut along the sagittal fissure and the two hemispheres were separated. The hemispheres dedicated to biochemical analyses were freeze-clamped by aluminum tongues pre-cooled in liquid nitrogen and then immersed in liquid nitrogen. The freeze-clamping procedure was introduced to accelerate freezing of the tissue, thus minimizing potential metabolite loss.
Tissue homogenization for metabolite analyses was effected as described below. After the wet weight (w.w.) determination, the frozen hemispheres were placed into 7 ml of ice-cold, nitrogen-saturated, precipitating solution (1:10 w/v) composed by CH3CN + 10 mM KH2PO4, pH 7.40, (3:1; v:v), and the homogenization was performed using an Ultra-Turrax homogenizer set at 24,000 rpm/min (Janke & Kunkel, Staufen, Germany). […]

[1] = 15 mg/kg repeated, 7 d post-sTBI

Work on sodium salt of dextran sulfate [LMW-DS] yielded a Malonyl-CoA (5 mg/kg, 7 d post-sTBI) of 6.02 ± 1.09 nmol/g w.w, an NADH (5 mg/kg, 7 d post-sTBI) of 8.83 ± 1.26 nmol/g w.w and an NADPH (5 mg/kg, 7 d post-sTBI) of 12.30 ± 2.86 nmol/g w.w. For the same substance, the “NADP^+” value (5 mg/kg, 7 d post-sTBI) was 24.45 ± 8.97 nmol/g w.w, the “NAD^+” value (5 mg/kg, 7 d post-sTBI) was 293.36 ± 41.55 nmol/g w.w and the NO2 (5 mg/kg, 7 d post-sTBI) was 59.61 ± 12.91 nmol/g w.w. The NO3 (5 mg/kg, 7 d post-sTBI) was 234.45 ± 40.05 nmol/g w.w, the UDP (5 mg/kg, 7 d post-sTBI) was 44.19 ± 6.22 nmol/g w.w and the UDP-Gal (5 mg/kg, 7 d post-sTBI) was 132.66 ± 9.12 nmol/g w.w. The UDP-GalNac (5 mg/kg, 7 d post-sTBI) was 17.37 ± 4.98 nmol/g w.w, the UDP-Glc (5 mg/kg, 7 d post-sTBI) was 58.10 ± 11.81 nmol/g w.w and the UDP-GlcNac (5 mg/kg, 7 d post-sTBI) was 85.14 ± 29.45 nmol/g w.w. For the same substance, the UMP (5 mg/kg, 7 d post-sTBI) was 167.18 ± 32.39 nmol/g w.w, the URACIL (5 mg/kg, 7 d post-sTBI) was 18.34 ± 3.77 nmol/g w.w and the “URIC ACID” value (5 mg/kg, 7 d post-sTBI) was 17.26 ± 4.11 nmol/g w.w. For the same substance, the URIDINE (5 mg/kg, 7 d post-sTBI) was 134.60 ± 31.89 nmol/g w.w, the UTP (5 mg/kg, 7 d post-sTBI) was 175.02 ± 30.65 nmol/g w.w and the XANTHINE (5 mg/kg, 7 d post-sTBI) was 14.33 ± 4.05 nmol/g w.w. The β-PSEUDOURIDINE (5 mg/kg, 7 d post-sTBI) was 17.51 ± 3.25 nmol/g w.w, the ATP/ADP (5 mg/kg, 7 d post-sTBI) was 6.28 ± 0.80 and the “NAD+/NADH” value (5 mg/kg, 7 d post-sTBI) was 33.90 ± 7.19. The ADENOSINE [1] was 40.84 ± 30.25 nmol/g w.w, the ADP [1] was 260.32 ± 34.67 nmol/g w.w and the ADP-Ribose [1] was 13.23 ± 3.32 nmol/g w.w. For the same substance, the AMP [1] was 43.12 ± 3.39 nmol/g w.w, the “ASCORBIC ACID” value [1] was 2617.09 ± 315.18 nmol/g w.w and the ATP [1] was 1971.17 ± 158.57 nmol/g w.w. It also gave an Acetyl-CoA [1] of 37.91 ± 6.46 nmol/g w.w, a CDP choline [1] of 11.72 ± 3.76 nmol/g w.w and a CMP [1] of 31.21 ± 13.28 nmol/g w.w. The CREATININE [1] was 9.07 ± 1.60 nmol/g w.w, the CTP [1] was 92.67 ± 16.27 nmol/g w.w and the CYTIDINE [1] was 72.85 ± 25.63 nmol/g w.w. For the same substance, the CYTOSINE [1] was 8.76 ± 1.88 nmol/g w.w, the CoA-SH [1] was 45.76 ± 5.87 nmol/g w.w and the GDP [1] was 109.06 ± 12.46 nmol/g w.w. For the same substance, the “GDP Glucose” value [1] was 106.42 ± 12.45 nmol/g w.w, the GMP [1] was 61.86 ± 29.28 nmol/g w.w and the GSH [1] was 2342.03 ± 308.72 nmol/g w.w. For the same substance, the GTP [1] was 466.06 ± 42.38 nmol/g w.w, the GUANINE [1] was 3.32 ± 1.41 nmol/g w.w and the GUANOSINE [1] was 19.66 ± 4.10 nmol/g w.w. The HYPOXANTHINE [1] was 4.10 ± 1.19 nmol/g w.w, the IMP [1] was 141.84 ± 36.32 nmol/g w.w and the INOSINE [1] was 139.26 ± 15.62 nmol/g w.w. It also gave an MDA [1] of 4.09 ± 0.67 nmol/g w.w, a Malonyl-CoA [1] of 12.56 ± 2.27 nmol/g w.w and an NADH [1] of 11.05 ± 1.52 nmol/g w.w. For the same substance, the NADPH [1] was 11.21 ± 2.60 nmol/g w.w, the “NADP^+” value [1] was 16.56 ± 6.08 nmol/g w.w and the “NAD^+” value [1] was 401.73 ± 56.89 nmol/g w.w. The NO2 [1] was 130.69 ± 28.31 nmol/g w.w, the NO3 [1] was 271.69 ± 46.41 nmol/g w.w and the UDP [1] was 37.12 ± 5.22 nmol/g w.w. The UDP-Gal [1] was 135.15 ± 9.29 nmol/g w.w, the UDP-GalNac [1] was 16.50 ± 4.73 nmol/g w.w and the UDP-Glc [1] was 61.37 ± 12.47 nmol/g w.w. It also gave a UDP-GlcNac [1] of 86.42 ± 29.89 nmol/g w.w, a UMP [1] of 107.66 ± 20.86 nmol/g w.w and a URACIL [1] of 24.13 ± 4.96 nmol/g w.w. For the same substance, the “URIC ACID” value [1] was 7.80 ± 1.86 nmol/g w.w, the URIDINE [1] was 97.21 ± 23.03 nmol/g w.w and the UTP [1] was 133.72 ± 23.42 nmol/g w.w. It also gave an XANTHINE [1] of 11.24 ± 3.18 nmol/g w.w, a β-PSEUDOURIDINE [1] of 16.72 ± 3.10 nmol/g w.w and an ATP/ADP [1] of 7.67 ± 0.97. For the same substance, the “NAD+/NADH” value [1] was 37.47 ± 9.46, the ADENOSINE (15 mg/kg, 2 d post-sTBI) was 53.25 ± 12.75 nmol/g w.w and the ADP (15 mg/kg, 2 d post-sTBI) was 346.37 ± 29.79 nmol/g w.w. The ADP-Ribose (15 mg/kg, 2 d post-sTBI) was 23.06 ± 4.63 nmol/g w.w, the AMP (15 mg/kg, 2 d post-sTBI) was 66.26 ± 10.74 nmol/g w.w and the “ASCORBIC ACID” value (15 mg/kg, 2 d post-sTBI) was 2783.04 ± 160.17 nmol/g w.w. It also gave an ATP (15 mg/kg, 2 d post-sTBI) of 1556.54 ± 91.20 nmol/g w.w, an Acetyl-CoA (15 mg/kg, 2 d post-sTBI) of 32.38 ± 3.77 nmol/g w.w and a CDP choline (15 mg/kg, 2 d post-sTBI) of 7.07 ± 1.05 nmol/g w.w. For the same substance, the CMP (15 mg/kg, 2 d post-sTBI) was 25.61 ± 5.23 nmol/g w.w, the CREATININE (15 mg/kg, 2 d post-sTBI) was 11.77 ± 2.19 nmol/g w.w and the CTP (15 mg/kg, 2 d post-sTBI) was 37.53 ± 7.59 nmol/g w.w. The CYTIDINE (15 mg/kg, 2 d post-sTBI) was 11.46 ± 2.07 nmol/g w.w, the CYTOSINE (15 mg/kg, 2 d post-sTBI) was 13.57 ± 1.66 nmol/g w.w and the CoA-SH (15 mg/kg, 2 d post-sTBI) was 9.35 ± 1.03 nmol/g w.w.
